What was measured:
Experiment in all cases: KINOMEscan competition binding
Settings in all cases: compound 10.0 µM
[1] = target: MAP3K12 (human) (UniProt Q12852)
[2] = target: EIF2AK2 (human) (UniProt P19525)
[3] = target: PTK2B (human) (UniProt Q14289)
[4] = target: ULK2 (human) (UniProt Q8IYT8)
[5] = target: CDK3 (human) (UniProt Q00526)
[6] = target: MST1R (human) (UniProt Q04912)
[7] = target: TYK2 JH1 catalytic (human) (UniProt P29597)
[8] = target: PHKG1 (human) (UniProt Q16816)
[9] = target: PIP4K2B (human) (UniProt P78356)
[10] = target: RIOK1 (human) (UniProt Q9BRS2)
[11] = target: TEC (human) (UniProt P42680)
[12] = target: CDK2 (human) (UniProt P24941)
[13] = target: SLK (human) (UniProt Q9H2G2)
SLK (human), sequence (Q9H2G2 whole entry, looked up): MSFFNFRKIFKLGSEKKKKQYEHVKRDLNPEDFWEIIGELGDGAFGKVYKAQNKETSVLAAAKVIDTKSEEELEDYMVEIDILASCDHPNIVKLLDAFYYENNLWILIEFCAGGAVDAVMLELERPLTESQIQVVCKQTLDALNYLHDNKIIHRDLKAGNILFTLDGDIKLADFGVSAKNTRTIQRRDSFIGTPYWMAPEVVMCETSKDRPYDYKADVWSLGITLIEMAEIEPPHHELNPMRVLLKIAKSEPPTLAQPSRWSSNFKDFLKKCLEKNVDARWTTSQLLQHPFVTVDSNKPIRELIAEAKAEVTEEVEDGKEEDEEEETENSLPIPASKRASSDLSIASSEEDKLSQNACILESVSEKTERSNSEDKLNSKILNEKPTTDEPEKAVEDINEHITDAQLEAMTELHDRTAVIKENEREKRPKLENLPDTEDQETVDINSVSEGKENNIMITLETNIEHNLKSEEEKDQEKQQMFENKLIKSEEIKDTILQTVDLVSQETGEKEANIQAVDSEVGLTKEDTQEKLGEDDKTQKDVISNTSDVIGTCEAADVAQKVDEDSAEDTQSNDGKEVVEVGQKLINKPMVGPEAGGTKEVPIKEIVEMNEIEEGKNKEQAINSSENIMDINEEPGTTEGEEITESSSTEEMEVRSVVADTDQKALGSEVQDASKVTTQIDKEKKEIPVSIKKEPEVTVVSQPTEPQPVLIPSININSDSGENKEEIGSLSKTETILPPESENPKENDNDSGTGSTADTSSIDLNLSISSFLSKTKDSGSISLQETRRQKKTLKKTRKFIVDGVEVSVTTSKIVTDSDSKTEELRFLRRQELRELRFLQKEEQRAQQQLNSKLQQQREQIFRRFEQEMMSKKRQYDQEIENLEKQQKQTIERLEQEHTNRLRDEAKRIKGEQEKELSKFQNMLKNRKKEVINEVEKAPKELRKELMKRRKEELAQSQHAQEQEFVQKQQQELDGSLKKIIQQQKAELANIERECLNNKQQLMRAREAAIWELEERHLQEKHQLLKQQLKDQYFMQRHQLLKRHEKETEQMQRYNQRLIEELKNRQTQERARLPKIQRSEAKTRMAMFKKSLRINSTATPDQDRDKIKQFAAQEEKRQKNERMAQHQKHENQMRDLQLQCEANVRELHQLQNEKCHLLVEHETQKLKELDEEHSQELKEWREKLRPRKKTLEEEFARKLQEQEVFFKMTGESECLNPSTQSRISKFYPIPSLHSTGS

[14] = target: AURKA (human) (UniProt O14965)
[15] = test system: CPK1 (P.falciparum)
[16] = target: CDK4 CCND3 (human) (UniProt P11802+P30281)
[17] = target: LATS1 (human) (UniProt O95835)
LATS1 (human), sequence (O95835 whole entry, looked up): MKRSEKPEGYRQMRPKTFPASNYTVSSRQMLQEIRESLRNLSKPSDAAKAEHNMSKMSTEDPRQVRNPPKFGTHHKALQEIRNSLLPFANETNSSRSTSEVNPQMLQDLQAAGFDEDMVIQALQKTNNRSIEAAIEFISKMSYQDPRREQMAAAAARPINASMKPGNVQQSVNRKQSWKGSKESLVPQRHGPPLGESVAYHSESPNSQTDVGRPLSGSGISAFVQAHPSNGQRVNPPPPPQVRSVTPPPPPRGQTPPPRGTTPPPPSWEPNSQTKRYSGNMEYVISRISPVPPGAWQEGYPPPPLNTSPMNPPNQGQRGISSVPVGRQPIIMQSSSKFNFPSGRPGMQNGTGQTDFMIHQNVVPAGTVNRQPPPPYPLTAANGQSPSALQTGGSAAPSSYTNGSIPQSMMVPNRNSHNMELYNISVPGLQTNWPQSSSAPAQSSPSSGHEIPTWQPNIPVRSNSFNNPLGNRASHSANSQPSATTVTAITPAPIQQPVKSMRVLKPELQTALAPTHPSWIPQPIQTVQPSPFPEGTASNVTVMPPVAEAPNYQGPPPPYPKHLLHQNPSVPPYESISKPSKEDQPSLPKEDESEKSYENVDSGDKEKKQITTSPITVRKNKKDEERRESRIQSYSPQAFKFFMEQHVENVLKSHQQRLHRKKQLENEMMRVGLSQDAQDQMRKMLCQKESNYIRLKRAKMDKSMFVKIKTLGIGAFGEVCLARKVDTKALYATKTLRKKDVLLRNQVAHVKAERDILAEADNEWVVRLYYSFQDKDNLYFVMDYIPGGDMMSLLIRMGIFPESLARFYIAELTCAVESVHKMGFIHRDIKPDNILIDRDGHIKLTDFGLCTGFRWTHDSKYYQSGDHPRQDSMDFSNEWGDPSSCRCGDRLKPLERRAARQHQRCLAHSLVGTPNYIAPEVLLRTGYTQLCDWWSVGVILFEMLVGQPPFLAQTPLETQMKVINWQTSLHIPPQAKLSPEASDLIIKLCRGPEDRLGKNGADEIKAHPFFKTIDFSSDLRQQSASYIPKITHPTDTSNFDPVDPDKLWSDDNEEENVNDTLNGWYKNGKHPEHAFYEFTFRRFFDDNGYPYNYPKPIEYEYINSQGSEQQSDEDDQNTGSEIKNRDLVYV

[18] = test system: EGFR (human), P00533 [T790M]
[19] = target: CAMK2G (human) (UniProt Q13555)
CAMK2G (human), sequence (Q13555 whole entry, looked up): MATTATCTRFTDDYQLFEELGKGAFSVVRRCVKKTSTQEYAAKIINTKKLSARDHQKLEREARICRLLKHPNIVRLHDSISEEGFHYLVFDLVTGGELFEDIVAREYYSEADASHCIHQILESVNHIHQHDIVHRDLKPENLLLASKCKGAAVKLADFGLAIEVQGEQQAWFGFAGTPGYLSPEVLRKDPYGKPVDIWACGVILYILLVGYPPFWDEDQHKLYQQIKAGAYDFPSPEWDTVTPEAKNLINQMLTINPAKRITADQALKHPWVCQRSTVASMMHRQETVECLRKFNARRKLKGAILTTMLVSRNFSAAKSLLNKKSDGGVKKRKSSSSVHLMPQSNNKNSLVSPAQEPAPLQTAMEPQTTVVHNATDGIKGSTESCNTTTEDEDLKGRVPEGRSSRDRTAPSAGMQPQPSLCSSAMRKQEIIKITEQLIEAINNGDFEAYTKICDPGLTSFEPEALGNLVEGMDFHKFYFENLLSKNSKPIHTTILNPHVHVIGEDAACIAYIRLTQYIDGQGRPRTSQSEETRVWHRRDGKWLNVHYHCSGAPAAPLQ

[20] = target: CSNK1A1 (human) (UniProt P48729)
[21] = target: MKNK1 (human) (UniProt Q9BUB5)
[22] = target: ACVRL1 (human) (UniProt P37023)
[23] = target: CIT (human) (UniProt O14578)
[24] = target: RPS6KA6 KD2 (human) (UniProt Q9UK32)
RPS6KA6 KD2 (human), sequence (Q9UK32 whole entry, looked up): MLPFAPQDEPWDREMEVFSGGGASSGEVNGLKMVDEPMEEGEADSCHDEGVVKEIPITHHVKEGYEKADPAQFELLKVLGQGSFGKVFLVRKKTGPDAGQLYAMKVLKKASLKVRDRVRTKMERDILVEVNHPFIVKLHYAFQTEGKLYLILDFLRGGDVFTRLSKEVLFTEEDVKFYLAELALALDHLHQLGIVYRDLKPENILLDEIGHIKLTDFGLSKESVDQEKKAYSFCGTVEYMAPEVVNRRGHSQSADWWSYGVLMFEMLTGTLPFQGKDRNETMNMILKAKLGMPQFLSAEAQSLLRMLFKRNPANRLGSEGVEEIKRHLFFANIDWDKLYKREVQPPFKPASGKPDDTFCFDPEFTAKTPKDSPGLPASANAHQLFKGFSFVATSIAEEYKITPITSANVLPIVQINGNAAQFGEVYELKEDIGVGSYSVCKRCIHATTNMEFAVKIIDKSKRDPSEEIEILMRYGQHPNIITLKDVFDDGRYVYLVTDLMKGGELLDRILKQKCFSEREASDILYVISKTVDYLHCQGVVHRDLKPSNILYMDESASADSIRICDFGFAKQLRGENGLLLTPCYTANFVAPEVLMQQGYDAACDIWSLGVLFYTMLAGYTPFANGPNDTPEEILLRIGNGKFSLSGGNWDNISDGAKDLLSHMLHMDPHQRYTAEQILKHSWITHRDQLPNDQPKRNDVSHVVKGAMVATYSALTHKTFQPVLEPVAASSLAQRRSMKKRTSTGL

[25] = target: YES1 (human) (UniProt P07947)
[26] = target: PHKG2 (human) (UniProt P15735)
[27] = target: MAP2K6 (human) (UniProt P52564)
[28] = target: RPS6KA2 KD2 (human) (UniProt Q15349)
[29] = target: MAP2K5 (human) (UniProt Q13163)
[30] = target: RPS6KA4 KD2 (human) (UniProt O75676)
RPS6KA4 KD2 (human), sequence (O75676 whole entry, looked up): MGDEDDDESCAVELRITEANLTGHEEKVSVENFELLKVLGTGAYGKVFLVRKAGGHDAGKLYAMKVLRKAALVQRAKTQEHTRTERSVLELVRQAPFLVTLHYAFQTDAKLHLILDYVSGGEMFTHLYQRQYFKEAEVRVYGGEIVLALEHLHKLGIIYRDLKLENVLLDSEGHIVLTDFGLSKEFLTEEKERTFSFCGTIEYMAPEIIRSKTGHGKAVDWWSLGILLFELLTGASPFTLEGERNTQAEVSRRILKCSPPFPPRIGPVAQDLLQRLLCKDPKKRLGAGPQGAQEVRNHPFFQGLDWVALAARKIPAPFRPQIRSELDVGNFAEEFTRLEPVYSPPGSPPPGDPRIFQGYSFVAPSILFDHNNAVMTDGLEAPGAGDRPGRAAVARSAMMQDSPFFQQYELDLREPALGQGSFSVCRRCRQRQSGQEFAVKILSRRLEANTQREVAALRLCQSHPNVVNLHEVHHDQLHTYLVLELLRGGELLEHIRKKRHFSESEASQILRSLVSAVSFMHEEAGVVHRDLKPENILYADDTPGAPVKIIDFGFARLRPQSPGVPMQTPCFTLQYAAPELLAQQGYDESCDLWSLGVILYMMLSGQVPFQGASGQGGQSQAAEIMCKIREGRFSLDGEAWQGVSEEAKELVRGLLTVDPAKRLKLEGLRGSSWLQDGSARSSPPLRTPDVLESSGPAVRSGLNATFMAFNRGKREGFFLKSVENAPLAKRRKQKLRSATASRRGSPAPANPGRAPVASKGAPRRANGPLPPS

[31] = target: RPS6KA6 KD1 (human) (UniProt Q9UK32)
RPS6KA6 KD1 (human), sequence (Q9UK32 whole entry, looked up): as the sequence (Q9UK32 whole entry, looked up) above

[32] = target: NEK9 (human) (UniProt Q8TD19)
[33] = target: TSSK1B (human) (UniProt Q9BXA7)
[34] = target: MAPK6 (human) (UniProt Q16659)

CDK3 (human), sequence (Q00526 whole entry, looked up): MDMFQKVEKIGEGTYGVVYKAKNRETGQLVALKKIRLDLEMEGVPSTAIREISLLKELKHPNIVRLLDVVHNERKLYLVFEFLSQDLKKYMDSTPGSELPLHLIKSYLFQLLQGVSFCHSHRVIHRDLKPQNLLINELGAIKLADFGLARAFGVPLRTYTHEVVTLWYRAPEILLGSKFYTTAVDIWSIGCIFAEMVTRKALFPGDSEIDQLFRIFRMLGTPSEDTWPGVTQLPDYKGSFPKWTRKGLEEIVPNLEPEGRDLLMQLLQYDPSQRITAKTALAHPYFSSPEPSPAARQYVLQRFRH

| SMILES | kinase still bound, per cent of control [1] [%] | kinase still bound, per cent of control [2] [%] | kinase still bound, per cent of control [3] [%] | kinase still bound, per cent of control [4] [%] | kinase still bound, per cent of control [5] [%] | kinase still bound, per cent of control [6] [%] | kinase still bound, per cent of control [7] [%] | kinase still bound, per cent of control [8] [%] | kinase still bound, per cent of control [9] [%] | kinase still bound, per cent of control [10] [%] | kinase still bound, per cent of control [11] [%] | kinase still bound, per cent of control [12] [%] | kinase still bound, per cent of control [13] [%] | kinase still bound, per cent of control [14] [%] | kinase still bound, per cent of control [15] [%] | kinase still bound, per cent of control [16] [%] | kinase still bound, per cent of control [17] [%] | kinase still bound, per cent of control [18] [%] | kinase still bound, per cent of control [19] [%] | kinase still bound, per cent of control [20] [%] | further results |
| --- | --- | --- | --- | --- | --- | --- | --- | --- | --- | --- | --- | --- | --- | --- | --- | --- | --- | --- | --- | --- | --- |
| CCN1CCN(C(=O)Cc2ccc(Nc3ncc(F)c(Nc4ccc(C(=O)Nc5ccccc5Cl)cc4)n3)cc2)CC1 | 71 | 15 | 33 | 77 | 92 | 100 | 22 | 82 | 1.6 | 0 | 42 | 80 | 0.2 | 0.5 | 29 | 21 | 100 | 13 | 55 | 96 | kinase still bound, per cent of control [21]: 100%; kinase still bound, per cent of control [22]: 100%; kinase still bound, per cent of control [23]: 27%; kinase still bound, per cent of control [24]: 62%; kinase still bound, per cent of control [25]: 60%; kinase still bound, per cent of control [26]: 42%; kinase still bound, per cent of control [27]: 44%; kinase still bound, per cent of control [28]: 57%; kinase still bound, per cent of control [29]: 9.8%; kinase still bound, per cent of control [30]: 100%; kinase still bound, per cent of control [31]: 37%; kinase still bound, per cent of control [32]: 18%; kinase still bound, per cent of control [33]: 100%; kinase still bound, per cent of control [34]: 21% |
| C=CC(=O)Nc1cc(-n2c(=O)ccc3cnc4ccc(-c5cn[nH]c5)cc4c32)ccc1C | 76 | 94 | 96 | 81 | 100 | 99 | 29 | 58 | 73 | 53 | 6 | 84 | 100 | 63 | 11 | 87 | 100 | 1.4 | 45 | 81 | kinase still bound, per cent of control [21]: 39%; kinase still bound, per cent of control [22]: 42%; kinase still bound, per cent of control [23]: 42%; kinase still bound, per cent of control [24]: 67%; kinase still bound, per cent of control [25]: 94%; kinase still bound, per cent of control [26]: 79%; kinase still bound, per cent of control [27]: 53%; kinase still bound, per cent of control [28]: 92%; kinase still bound, per cent of control [29]: 0.3%; kinase still bound, per cent of control [30]: 94%; kinase still bound, per cent of control [31]: 74%; kinase still bound, per cent of control [32]: 100%; kinase still bound, per cent of control [33]: 87%; kinase still bound, per cent of control [34]: 95% |
| COc1cc2ncnc(-n3nc(-c4ccccn4)nc3N)c2cc1OC | 52 | 21 | 75 | 3 | 82 | 100 | 22 | 55 | 44 | 29 | 100 | 50 | 28 | 15 | 1.4 | 60 | 100 | 67 | 56 | 1.4 | kinase still bound, per cent of control [21]: 51%; kinase still bound, per cent of control [22]: 15%; kinase still bound, per cent of control [23]: 30%; kinase still bound, per cent of control [24]: 6.2%; kinase still bound, per cent of control [25]: 77%; kinase still bound, per cent of control [26]: 36%; kinase still bound, per cent of control [27]: 46%; kinase still bound, per cent of control [28]: 43%; kinase still bound, per cent of control [29]: 1.1%; kinase still bound, per cent of control [30]: 0.6%; kinase still bound, per cent of control [31]: 20%; kinase still bound, per cent of control [32]: 2.2%; kinase still bound, per cent of control [33]: 60%; kinase still bound, per cent of control [34]: 85% |
